Test results: patent publication US20050276834A1, “Mole bait and systems and methods for making and using an improved mole bait” (priority 2004, published 2005)

Test system: moles
Assay: Mole bait article fed to moles, killing of moles
Type: in vivo
Conditions: bromethalin absorbed from a single mole bait article; oral consumption by mole
Method: In developing the mole bait article containing gelatin, sorbitol and glycerin according to the above-outlined exemplary embodiment, the applicants screened a large number of elastomers and plasticizers. This screening included determining an appropriate ratio of components by stretching the resultant mole bait article, where the length of the mole bait article was measured before, during and after stretching. This screening also included stretching the mole bait article until the mole bait article broke, thus allowing the tensile strength of the mole bait article to be determined. This screening included providing the mole bait article having the identified formula to moles and observing whether the moles would consume the resultant mole bait article. Finally, this screening included determining whether the mole bait article, when digested by the moles, is sufficiently digestible that a single mole bait article releases an effective amount of the active ingredient into the moles' systems.
In contrast, in various exemplary embodiments of the mole bait article according to this invention, the mole bait article is sufficiently digestible that a single mole bait article according to this invention, upon being consumed and digested, is able to release an effective dose of the active ingredient to the mole. […]

CN(c1c(Br)cc(Br)cc1Br)c1c([N+](=O)[O-])cc([N+](=O)[O-])cc1C(F)(F)F [Bromethalin]
dose received from a single mole bait article during its time in the mole's digestive system: lethal dose from a single one of the mole bait articles
